Results as given in the NIST ThermoML archive (doi:10.1021/je700339f).

Experiment: xn = mol fraction of the nth substance listed
Settings: 298 K, Liquid

ClCCCCCl [1,4-dichlorobutane] + CC(=O)N(C)C
mass density [kg/m3]
Settings	x2 = 0.0975	x2 = 0.2001	x2 = 0.2996	x2 = 0.4017	x2 = 0.5009	x2 = 0.5981	x2 = 0.6987	x2 = 0.801	x2 = 0.9012
100 kPa	1116.3	1097.8	1079.3	1060	1040.7	1021.7	1001.1	980	958.6
500 kPa	1116.6	1098.2	1079.6	1060.3	1041	1022	1001.3	980.3	958.8
1000 kPa	1117	1098.6	1080	1060.6	1041.4	1022.3	1001.7	980.6	959.2
1500 kPa	1117.4	1098.9	1080.3	1061	1041.7	1022.7	1002	980.8	959.5
2000 kPa	1117.7	1099.3	1080.7	1061.3	1042	1023	1002.3	981.2	959.8
2500 kPa	1118.1	1099.6	1081	1061.7	1042.4	1023.3	1002.8	981.6	960.1
3000 kPa	1118.5	1100.1	1081.4	1062.1	1042.7	1023.7	1003.1	982	960.4
3500 kPa	1118.9	1100.4	1081.8	1062.4	1043.1	1024	1003.4	982.2	960.7
4000 kPa	1119.3	1100.8	1082.1	1062.8	1043.4	1024.4	1003.7	982.6	961
4500 kPa	1119.6	1101.2	1082.5	1063.2	1043.7	1024.8	1004	982.9	961.3
5000 kPa	1120	1101.5	1082.8	1063.4	1044.1	1025	1004.4	983.2	961.6
5500 kPa	1120.4	1101.9	1083.2	1063.8	1044.5	1025.4	1004.7	983.4	961.9
6000 kPa	1120.7	1102.2	1083.6	1064.2	1044.9	1025.6	1005	983.8	962.2
6500 kPa	1121.1	1102.6	1083.9	1064.5	1045.2	1026	1005.3	984.1	962.6
7000 kPa	1121.5	1102.9	1084.3	1064.9	1045.5	1026.4	1005.7	984.4	962.9
7500 kPa	1121.9	1103.2	1084.6	1065.2	1045.8	1026.7	1006	984.8	963.1
8000 kPa	1122.2	1103.6	1085	1065.5	1046.2	1027	1006.3	985	963.5
8500 kPa	1122.5	1104	1085.4	1065.9	1046.6	1027.3	1006.6	985.4	963.7
9000 kPa	1123	1104.3	1085.7	1066.2	1046.9	1027.7	1007	985.6	964
9500 kPa	1123.2	1104.7	1086	1066.6	1047.2	1028	1007.3	986	964.3
10000 kPa	1123.7	1105.2	1086.4	1067	1047.6	1028.5	1007.6	986.3	964.7
10500 kPa	1124.1	1105.5	1086.8	1067.3	1047.9	1028.8	1008	986.7	965
11000 kPa	1124.4	1105.8	1087.2	1067.6	1048.2	1029.1	1008.3	986.9	965.2
11500 kPa	1124.7	1106.2	1087.5	1068	1048.6	1029.5	1008.6	987.3	965.6
11900 kPa	–	–	–	–	–	–	–	987.6	–
12000 kPa	1125.1	1106.6	1087.8	1068.3	1048.9	1029.8	1008.9	–	965.9
12500 kPa	1125.5	1106.8	1088.2	1068.7	1049.2	1030.1	1009.3	987.9	966.3
13000 kPa	1125.8	1107.2	1088.5	1069	1049.6	1030.4	1009.6	988.2	966.5
13400 kPa	–	–	–	1069.3	1049.9	–	–	–	–
13500 kPa	1126.1	1107.6	1088.9	–	–	1030.7	1009.9	988.5	966.8
14000 kPa	1126.5	1107.9	1089.1	1069.7	1050.3	1031	1010.2	988.8	967.1
14500 kPa	1126.8	1108.2	1089.5	1070	1050.6	1031.4	1010.5	989.1	967.4
15000 kPa	1127.2	1108.6	1089.9	1070.3	1050.9	1031.6	1010.8	989.4	967.7
15500 kPa	1127.6	1108.9	1090.2	1070.6	1051.2	1032	1011.1	989.7	968
16000 kPa	1127.9	1109.3	1090.5	1071	1051.5	1032.3	1011.4	990	968.2
16400 kPa	1128.2	–	–	–	1051.8	–	–	–	–
16500 kPa	–	1109.6	1090.9	1071.4	–	1032.6	1011.7	990.2	968.5
17000 kPa	1128.6	1109.9	1091.2	1071.6	1052.1	1032.9	1012	990.5	968.7
17500 kPa	1129	1110.3	1091.6	1072	1052.4	1033.2	1012.4	990.8	969.1
17900 kPa	–	–	–	–	1052.7	–	–	–	–
18000 kPa	1129.3	1110.6	1091.8	1072.3	–	1033.5	1012.7	991.1	969.3
18500 kPa	1129.6	1110.9	1092.2	1072.6	1053.1	1033.8	1013	991.4	969.6
19000 kPa	1130	1111.3	1092.5	1073	1053.5	1034.2	1013.3	991.8	969.9
19500 kPa	1130.3	1111.7	1092.8	1073.3	1053.8	1034.5	1013.6	992	970.1
20000 kPa	1130.8	1112	1093.3	1073.8	1054.1	1034.8	1014	992.4	970.5
